Assays:
Cathepsin S = Cathepsin S (Homo sapiens, UniProt P25774); assay: Inhibition of human recombinant cathepsin S expressed in baculovirus by fluorescence assay
Cathepsin K = biological target: T1, Cathepsin K (Homo sapiens, UniProt P43235); assay: Inhibition of human recombinant cathepsin K expressed in baculovirus by fluorescence assay
T1 sequence (P43235 whole entry): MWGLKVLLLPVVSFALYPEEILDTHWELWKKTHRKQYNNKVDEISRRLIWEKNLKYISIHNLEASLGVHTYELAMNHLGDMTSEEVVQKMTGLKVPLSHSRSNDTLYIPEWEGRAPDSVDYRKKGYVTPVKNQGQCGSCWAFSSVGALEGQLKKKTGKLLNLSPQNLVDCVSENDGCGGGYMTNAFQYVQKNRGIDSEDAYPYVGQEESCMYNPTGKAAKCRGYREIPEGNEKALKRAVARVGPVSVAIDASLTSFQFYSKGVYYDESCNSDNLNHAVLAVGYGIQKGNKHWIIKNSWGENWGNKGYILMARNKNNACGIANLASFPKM

Procathepsin L = Procathepsin L (Homo sapiens, UniProt P07711); assay: Inhibition of human cathepsin L by fluorescence assay
Chain of Procathepsin L (P07711 whole entry): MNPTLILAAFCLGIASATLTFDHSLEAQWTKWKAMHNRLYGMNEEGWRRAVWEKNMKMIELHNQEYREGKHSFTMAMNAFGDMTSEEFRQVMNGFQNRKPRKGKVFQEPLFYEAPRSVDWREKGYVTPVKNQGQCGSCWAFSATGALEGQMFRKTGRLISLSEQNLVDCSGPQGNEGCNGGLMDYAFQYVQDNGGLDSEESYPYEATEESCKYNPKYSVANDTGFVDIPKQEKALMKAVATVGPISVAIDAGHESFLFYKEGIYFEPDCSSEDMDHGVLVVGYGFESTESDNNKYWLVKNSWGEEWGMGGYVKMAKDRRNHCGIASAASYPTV

Chain of Cathepsin S (P25774 whole entry): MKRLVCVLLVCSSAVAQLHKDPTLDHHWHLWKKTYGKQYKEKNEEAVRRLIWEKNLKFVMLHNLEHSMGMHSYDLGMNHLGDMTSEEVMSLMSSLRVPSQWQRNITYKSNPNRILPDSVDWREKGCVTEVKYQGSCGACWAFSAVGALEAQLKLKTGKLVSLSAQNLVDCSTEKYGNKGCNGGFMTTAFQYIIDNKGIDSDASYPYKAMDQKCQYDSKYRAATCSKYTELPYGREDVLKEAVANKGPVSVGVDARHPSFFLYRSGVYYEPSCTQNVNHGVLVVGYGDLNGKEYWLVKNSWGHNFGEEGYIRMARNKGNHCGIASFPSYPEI

| SMILES | Ki (Cathepsin S) [µM] | Ki (Cathepsin K) [µM] | Ki (Procathepsin L) [µM] |
| --- | --- | --- | --- |
| CC[C@@H]1OCC(=O)[C@H]1NC(=O)[C@H](CC1(C)CCCC1)NC(=O)c1ccc(NS(=O)(=O)c2ccccc2)c(C)c1 | 0.004 | 0.73 | 2.3 |
| CC[C@@H]1OCC(=O)[C@H]1NC(=O)[C@H](CC1(C)CCCC1)NC(=O)c1ccc(NS(=O)(=O)c2ccccc2)c(Cl)c1 | 0.012 | 1.6 | 1.1 |
| CC[C@@H]1OCC(=O)[C@H]1NC(=O)[C@H](CC1(C)CCCC1)NC(=O)c1ccc(NS(=O)(=O)c2nc(C(C)C)cs2)cc1 | 0.0057 | 1.7 | 9.1 |
| CC[C@@H]1OCC(=O)[C@H]1NC(=O)[C@H](CC1(C)CCCC1)NC(=O)c1ccc(NS(=O)(=O)Cc2ccccc2)cc1 | 0.031 | 1.7 | 15 |
| CC[C@@H]1OCC(=O)[C@H]1NC(=O)[C@H](CC1(C)CCCC1)NC(=O)c1ccc(NS(=O)(=O)c2ccccc2C)cc1 | 0.0039 | 0.55 | 8.4 |
| CC[C@@H]1OCC(=O)[C@H]1NC(=O)[C@H](CC1(C)CCCC1)NC(=O)c1ccc(NS(C)(=O)=O)cc1OC | 0.33 | 5 | 29 |
| CC[C@@H]1OCC(=O)[C@H]1NC(=O)[C@H](CC1(C)CCCC1)NC(=O)c1ccc(NS(C)(=O)=O)c(C)c1 | 0.0049 | 0.24 | 2 |
| CC[C@@H]1OCC(=O)[C@H]1NC(=O)[C@H](CC1(C)CCCC1)NC(=O)c1ccc(NS(C)(=O)=O)c(OC)c1 | 0.026 | 0.56 | 7.2 |
| CC[C@@H]1OCC(=O)[C@H]1NC(=O)[C@H](CC1(C)CCCC1)NC(=O)c1ccc(NS(C)(=O)=O)c(F)c1 | 0.016 | 0.7 | 7.8 |
| CC[C@@H]1OCC(=O)[C@H]1NC(=O)[C@H](CC1(C)CCCC1)NC(=O)c1ccc(NS(C)(=O)=O)c(C(C)=O)c1 | 0.057 | 0.75 | 9.5 |
| CC[C@@H]1OCC(=O)[C@H]1NC(=O)[C@H](CC1(C)CCCC1)NC(=O)c1ccc(NS(=O)(=O)c2nc(C)cs2)cc1 | 0.013 | 3 | 27 |
| CC[C@@H]1OCC(=O)[C@H]1NC(=O)[C@H](CC1(C)CCCC1)NC(=O)c1cccc(NS(C)(=O)=O)c1 | 0.012 | 1.5 | 2.5 |
| CC[C@@H]1OCC(=O)[C@H]1NC(=O)[C@H](CC1(C)CCCC1)NC(=O)c1ccc(NS(=O)(=O)c2ncc(C)s2)cc1 | 0.0086 | 2.3 | 17 |
| CC[C@@H]1OCC(=O)[C@H]1NC(=O)[C@H](CC1(C)CCCC1)NC(=O)c1ccc(N(C)S(C)(=O)=O)cc1 | 0.11 | 0.098 | 11 |
| CC[C@@H]1OCC(=O)[C@H]1NC(=O)[C@H](CC1(C)CCCC1)NC(=O)c1ccc(S(=O)(=O)NC)cc1 | 0.14 | 0.42 | 27 |
| CC[C@@H]1OCC(=O)[C@H]1NC(=O)[C@H](CC1(C)CCCC1)NC(=O)c1cccc(S(=O)(=O)NC)c1 | 0.19 | 23 | 15 |
| CC[C@@H]1OCC(=O)[C@H]1NC(=O)[C@H](CC1(C)CCCC1)NC(=O)c1ccc(NS(=O)(=O)C2CCCCC2)cc1 | 0.18 | 0.95 | 64 |
| CC[C@@H]1OCC(=O)[C@H]1NC(=O)[C@H](CC(C)(C)C)NC(=O)c1ccsc1 | 0.031 | 0.318 | 10 |
| CC[C@@H]1OCC(=O)[C@H]1NC(=O)[C@H](CC1(C)CCCC1)NC(=O)c1ccc(NS(=O)(=O)c2cccnc2Cl)cc1 | 0.0059 | 0.8 | 23 |
| CC[C@@H]1OCC(=O)[C@H]1NC(=O)[C@H](CC1(C)CCCC1)NC(=O)c1ccc(NS(=O)(=O)c2ccccc2F)cc1 | 0.0038 | 0.98 | 11 |
| CC[C@@H]1OCC(=O)[C@H]1NC(=O)[C@H](CC1(C)CCCC1)NC(=O)c1ccc(NS(C)(=O)=O)cc1C | 0.03 | 1.9 | 23 |
| CC[C@@H]1OCC(=O)[C@H]1NC(=O)[C@H](CC1(C)CCCC1)NC(=O)c1ccc(NS(=O)(=O)c2ccccc2)nc1 | 0.056 | 2.2 | 31 |
| CCCCS(=O)(=O)Nc1ccc(C(=O)N[C@@H](CC2(C)CCCC2)C(=O)N[C@@H]2C(=O)CO[C@H]2CC)cc1 | 0.0034 | 1.5 | 21 |
| CC[C@@H]1OCC(=O)[C@H]1NC(=O)[C@H](CC1(C)CCCC1)NC(=O)c1ccc(NS(C)(=O)=O)c(Cl)c1 | 0.0056 | 0.84 | 0.97 |
| CC[C@@H]1OCC(=O)[C@H]1NC(=O)[C@H](CC1(C)CCCC1)NC(=O)c1ccc(NS(=O)(=O)c2nccn2C)cc1 | 0.0045 | 0.64 | 24 |
| CC[C@@H]1OCC(=O)[C@H]1NC(=O)[C@H](CC1(C)CCCC1)NC(=O)c1ccc(NS(=O)(=O)C(F)(F)F)cc1 | 0.0083 | 1.2 | 15 |
| CC[C@@H]1OCC(=O)[C@H]1NC(=O)[C@H](CC1(C)CCCC1)NC(=O)c1ccc(NS(C)(=O)=O)nc1 | 0.063 | 1.2 | 14 |
| CC[C@@H]1OCC(=O)[C@H]1NC(=O)[C@H](CC1(C)CCCC1)NC(=O)c1ccc(NS(=O)(=O)N(C)C)cc1 | 0.0053 | 0.3 | 16 |

The remaining molecules from weak to strong by Ki (Cathepsin S), led by results:

| Ki (Cathepsin S) [µM] | Ki (Cathepsin K) [µM] | Ki (Procathepsin L) [µM] | SMILES |
| --- | --- | --- | --- |
| 0.0034 | 0.52 | 7.8 | CC[C@@H]1OCC(=O)[C@H]1NC(=O)[C@H](CC1(C)CCCC1)NC(=O)c1ccc(NS(=O)(=O)c2cccc(F)c2)cc1 |
| 0.0033 | 0.5 | 11 | CC[C@@H]1OCC(=O)[C@H]1NC(=O)[C@H](CC1(C)CCCC1)NC(=O)c1ccc(NS(=O)(=O)c2ccc(OC)cc2)cc1 |
| 0.0029 | 0.5 | 15 | CC[C@@H]1OCC(=O)[C@H]1NC(=O)[C@H](CC1(C)CCCC1)NC(=O)c1ccc(NS(=O)(=O)C(C)C)cc1 |
| 0.0027 | 1.1 | 13 | CC[C@@H]1OCC(=O)[C@H]1NC(=O)[C@H](CC1(C)CCCC1)NC(=O)c1ccc(NS(=O)(=O)c2ccncc2)cc1 |
| 0.0026 | 0.29 | 12 | CC[C@@H]1OCC(=O)[C@H]1NC(=O)[C@H](CC1(C)CCCC1)NC(=O)c1ccc(NS(C)(=O)=O)cc1 |
| 0.0024 | 0.44 | 12 | CC[C@@H]1OCC(=O)[C@H]1NC(=O)[C@H](CC1(C)CCCC1)NC(=O)c1ccc(NS(=O)(=O)C2CC2)cc1 |
| 0.0023 | 0.45 | 13 | CC[C@@H]1OCC(=O)[C@H]1NC(=O)[C@H](CC1(C)CCCC1)NC(=O)c1ccc(NS(=O)(=O)c2ccccn2)cc1 |
| 0.0023 | 1 | 13 | CC[C@@H]1OCC(=O)[C@H]1NC(=O)[C@H](CC1(C)CCCC1)NC(=O)c1ccc(NS(=O)(=O)c2cccs2)cc1 |
| 0.0021 | 0.57 | 14 | CC[C@@H]1OCC(=O)[C@H]1NC(=O)[C@H](CC1(C)CCCC1)NC(=O)c1ccc(NS(=O)(=O)c2cccnc2)cc1 |
| 0.002 | 0.37 | 5.9 | CC[C@@H]1OCC(=O)[C@H]1NC(=O)[C@H](CC1(C)CCCC1)NC(=O)c1ccc(NS(=O)(=O)c2ccc(F)cc2)cc1 |
| 0.0019 | 0.47 | 17 | CC[C@@H]1OCC(=O)[C@H]1NC(=O)[C@H](CC1(C)CCCC1)NC(=O)c1ccc(NS(=O)(=O)CC)cc1 |
| 0.0013 | 0.95 | 9.1 | CC[C@@H]1OCC(=O)[C@H]1NC(=O)[C@H](CC1(C)CCCC1)NC(=O)c1ccc(NS(=O)(=O)c2ccc(N)cc2)cc1 |
| 0.0011 | 0.95 | 7.9 | CC[C@@H]1OCC(=O)[C@H]1NC(=O)[C@H](CC1(C)CCCC1)NC(=O)c1ccc(NS(=O)(=O)c2ccc(C#N)cc2)cc1 |
| 0.001 | 0.27 | 14 | CC[C@@H]1OCC(=O)[C@H]1NC(=O)[C@H](CC1(C)CCCC1)NC(=O)c1ccc(NS(=O)(=O)c2cccc(OC)c2)cc1 |
| 0.0009 | 0.26 | 8.7 | CC[C@@H]1OCC(=O)[C@H]1NC(=O)[C@H](CC1(C)CCCC1)NC(=O)c1ccc(NS(=O)(=O)c2cnccc2C)cc1 |
| 0.0008 | 0.43 | 11 | CC[C@@H]1OCC(=O)[C@H]1NC(=O)[C@H](CC1(C)CCCC1)NC(=O)c1ccc(NS(=O)(=O)c2ccccc2)cc1 |
| 0.0008 | 0.82 | 8.5 | CC[C@@H]1OCC(=O)[C@H]1NC(=O)[C@H](CC1(C)CCCC1)NC(=O)c1ccc(NS(=O)(=O)c2ccccc2C#N)cc1 |
| 0.0007 | 1.8 | 16 | CC[C@@H]1OCC(=O)[C@H]1NC(=O)[C@H](CC1(C)CCCC1)NC(=O)c1ccc(NS(=O)(=O)c2sc(C)nc2C)cc1 |
| 0.0006 | 0.73 | 6.8 | CC[C@@H]1OCC(=O)[C@H]1NC(=O)[C@H](CC1(C)CCCC1)NC(=O)c1ccc(NS(=O)(=O)c2cccc(C#N)c2)cc1 |
